The test system of test [1] is basolateral K+ channels. The test is described as follows: K+ transport/conductance of basolateral membrane in apically permeabilized T84 monolayers. To be noted: for increases in Isc and G in absence of K+: Na+ as sole permeant cation, 135 mM gradient; for effect on K+ transport (Isc and G): forskolin 10 μM, 135 mM K+ gradient; for duration of agonist-induced changes in Isc: permeabilized T84 monolayers; for activation of currents at positive transepithelial voltages: basolaterally directed K+ gradient.

Another test concerns T84 cells. The experiment in a line: Electrogenic Cl- secretion (short circuit current) in intact T84 monolayers. Type of test: cell-based, human. Further details: inhibition of Cl- secretory response to carbachol (Isc): dose or concentration left out as unconfirmed. The conditions noted are these: for inhibition of chloride secretion: T84 cells.
In another test the test system is rabbit colonic mucosa. The test is described as follows: Ussing chamber studies using rabbit colonic mucosa. Further details: species or system rabbit (New Zealand).
For test [2], the system named is apical membrane Cl- channels. The test is described as follows: Cl- conductance of the apical plasma membrane in basolaterally permeabilized T84 monolayers. The format is cell-based, human.
The subject of test [3] is intestinal fluid secretion induced by cholera toxin. The arrangement: species or system mouse (Balb/C). The conditions noted are these: mouse, in vivo.
The test system of test [4] is apical membrane Cl- channels. The experiment in a line: 125I efflux from T84 monolayers (apical Cl- channel activity).
Test [5] concerns the target T1, basolateral NaK2Cl cotransporters (Homo sapiens, UniProt P55011).
T1 sequence (P55011 1-1212): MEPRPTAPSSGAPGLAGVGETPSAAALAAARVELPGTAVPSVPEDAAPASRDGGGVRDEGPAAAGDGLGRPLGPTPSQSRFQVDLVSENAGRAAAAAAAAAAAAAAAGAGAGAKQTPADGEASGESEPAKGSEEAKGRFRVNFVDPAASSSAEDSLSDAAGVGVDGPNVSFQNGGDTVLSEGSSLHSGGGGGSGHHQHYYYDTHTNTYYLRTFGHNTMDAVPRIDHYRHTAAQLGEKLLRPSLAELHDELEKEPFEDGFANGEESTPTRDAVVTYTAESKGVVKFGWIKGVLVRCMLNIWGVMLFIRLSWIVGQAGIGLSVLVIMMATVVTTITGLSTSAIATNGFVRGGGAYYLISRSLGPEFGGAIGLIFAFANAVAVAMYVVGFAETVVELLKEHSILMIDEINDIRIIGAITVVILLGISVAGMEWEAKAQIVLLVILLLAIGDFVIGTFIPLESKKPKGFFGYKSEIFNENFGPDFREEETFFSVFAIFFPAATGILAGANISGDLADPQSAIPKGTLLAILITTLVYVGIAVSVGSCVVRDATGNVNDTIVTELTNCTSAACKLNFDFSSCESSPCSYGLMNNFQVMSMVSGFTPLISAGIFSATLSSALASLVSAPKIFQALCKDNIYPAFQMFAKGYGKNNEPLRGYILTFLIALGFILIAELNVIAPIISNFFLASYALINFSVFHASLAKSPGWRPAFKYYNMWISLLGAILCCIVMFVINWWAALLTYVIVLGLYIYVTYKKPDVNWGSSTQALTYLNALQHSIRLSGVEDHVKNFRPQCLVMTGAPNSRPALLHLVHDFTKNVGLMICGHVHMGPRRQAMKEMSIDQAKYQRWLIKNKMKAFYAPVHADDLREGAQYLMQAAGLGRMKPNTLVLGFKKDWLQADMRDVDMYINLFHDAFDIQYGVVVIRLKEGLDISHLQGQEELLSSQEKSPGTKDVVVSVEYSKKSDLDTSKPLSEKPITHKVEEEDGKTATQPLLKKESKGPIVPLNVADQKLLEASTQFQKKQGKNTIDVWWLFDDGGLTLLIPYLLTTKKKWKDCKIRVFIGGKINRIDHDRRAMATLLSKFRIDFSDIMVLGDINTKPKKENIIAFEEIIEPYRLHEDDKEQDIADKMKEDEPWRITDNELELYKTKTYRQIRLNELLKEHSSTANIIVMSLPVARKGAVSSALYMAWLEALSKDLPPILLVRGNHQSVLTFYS
The experiment in a line: 86Rb uptake in T84 monolayers (bumetanide-sensitive NaK2Cl cotransport). The format is cell-based. Here is the method: A group of control and CLT treated (33 μM, for 30 min) monolayers were treated with bumetanide (10 μM for 12 min).

The next test relates to basolateral K+ channel. The experiment in a line: 86Rb efflux from T84 monolayers (K+ channel activity). Type of test: cell-based, human.
Test [6] deals with basolateral K+ channels.
Where [7] appears, read: carbachol (so in the source) stimulated, […].
[8] abbreviates: clotrimazole 33 μM, final 30 min of 90 min preincubation.
Setting [9] is: T84 cells, vs cells not treated with clotrimazole.

Like-named read-outs stand apart in the source and are kept apart here.

For `OC(c1ccccc1)(c1ccccc1)c1ccccc1Cl` [2-chlorophenyl-bis-phenyl methanol], the “inhibition of time course of K+ transport after carbachol” value in the test with basolateral K+ channels [1] (carbachol 100 μM (Ca++ agonist)) is listed as “Nearly identical results”. Also, the “inhibition of time course of K+ transport after forskolin” value in the test on basolateral K+ channels [1] (forskolin 10 μM (cAMP agonist)) is “Nearly identical results”. Besides, the “inhibition of chloride secretion” value in the test on T84 cells was “effective at inhibiting chloride secretion”.
As to `[Ba+2].[Cl-].[Cl-]` [BaCl2], the “effect on K+ transport induced by carbachol” value in the test with basolateral K+ channels [1] (carbachol 100 μM after forskolin, BaCl2 3 mM) is reported as “no detectable effect”. Besides, the “inhibition of cAMP-sensitive IK” value in the test with basolateral K+ channels [1] (forskolin 10 μM elicited, BaCl2 3 mM basolateral) is listed as “greater than 70%”. In the test on T84 cells, the “inhibition of Cl- secretory response to VIP (Isc)” value (“inhibition … to VIP (Isc)” for short) is “strongly inhibited”. Besides, in the test on T84 cells (setting [7]), the “inhibition of Cl- secretory response to carbachol (Isc)” value (from here on “inhibition … to carbachol (Isc)”) is listed as “no apparent affect”.
As to `C[C@@H]1[C@H](O)[C@@H](C)/C=C/C=C/C=C/C=C/C=C/C=C/C=C/[C@H](O[C@@H]2O[C@H](C)[C@@H](O)[C@H](N)[C@@H]2O)C[C@@H]2O[C@](O)(C[C@@H](O)C[C@@H](O)[C@H](O)CC[C@@H](O)C[C@@H](O)CC(=O)O[C@H]1C)C[C@H](O)[C@H]2C(=O)O` [amphotericin B], in the test with basolateral K+ channels [1] (amphotericin B, apical), the “increase in conductance on initial permeabilization” value is 49±19%.
For the molecule `C[N+](C)(C)CCOC(N)=O` [carbachol], in the test with basolateral K+ channels [1], the “increases in Isc and G in absence of K+” value is reported as “not detectable”; the “effect on K+ transport (Isc and G)” value is “increased K+ currents”; the “duration of agonist-induced changes in Isc” value is “short-lived”. Besides, the “time to return of IscK and GK to baseline” value in the test on basolateral K+ channels [1] (after addition of carbachol) is on record as at most 5 min. Also, the “carbachol-induced IscK, carbachol added after forskolin” value in the test with basolateral K+ channels [1] (after forskolin) was 180.7±15.7 μA/cm^2. In the test on basolateral K+ channels [1] (carbachol alone), the “carbachol-induced IscK, carbachol added alone” value turned out to be 111.7±7.4 μA/cm^2. Besides, the “effect on Isc after forskolin” value with rabbit colonic mucosa (carbachol 100 μM added after forskolin) was “no firther effect”.
Take `Clc1ccccc1C(c1ccccc1)(c1ccccc1)n1ccnc1` [clotrimazole]: in the test with basolateral K+ channels [1], the “inhibition of time course of K+ transport after carbachol” value is “significantly inhibited” and the “inhibition of time course of K+ transport after forskolin” value is listed as “significantly inhibited”. Besides, in test [2] (symmetrical Cl- 142 mM), the “effect on forskolin-stimulated Cl- conductances” value is “no detectable effect” and the “effect on thapsigargin-stimulated Cl- conductances” value is “no detectable effect”. Besides, in test [3], the “effect on intestinal secretion in the absence of cholera toxin” value is on record as “no effect” and the “reduction of intestinal fluid secretion induced by cholera toxin” value turned out to be 86%. For the same molecule, the “rate constant for 125I efflux” value in test [4] (VIP-stimulated, clotrimazole-treated monolayers, n=2 in duplicate) was 0.0637 % uptake/minute. Further, the “125I loading of the cells” value in [4] (setting [8]) is on record as “did not alter”. Further, the “effect on time course of 125I efflux, VIP” value in test [4] (monolayers treated with VIP) was “little or no effect”. Moreover, in test [5] (0.5 h, read-out: reduction of total amount of 86Rb uptake), the inhibition at 33 µM is 53.6 ± 5.8%. Also, the “effect on fractional component of 86Rb uptake that was bumetanide-sensitive” value in test [5] (clotrimazole 33 μM, bumetanide 10 μM) is given as “no effect”. For the same molecule, the “inhibition of time course of forskolin induced Isc” value in the test with rabbit colonic mucosa (clotrimazole 30 μM, forskolin 10 μM) is listed as “inhibited strongly”. In addition, in the test with basolateral K+ channel (setting [9]), the “inhibition of Ca++ stimulated 86Rb efflux” value was “significantly inhibited” and the “inhibition of baseline 86Rb efflux” value was “significantly inhibited”. Moreover, in the test on basolateral K+ channel (VIP 5 μM, clotrimazole 33 μM), the “reduction of rate constant for VIP-stimulated 86Rb efflux” value is listed as 87%. For the same molecule, the “86Rb loading of the cells” value with basolateral K+ channel (setting [8]) is “did not alter”. Moreover, the “rate constant for VIP-stimulated 86Rb efflux” value with basolateral K+ channel (clotrimazole-treated (vs 0.0465 untreated), n=2 in triplicate) is 0.0062 % uptake/minute. For the same molecule, the “rate constant for thapsigargin-stimulated 86Rb efflux” value in the test on basolateral K+ channel (clotrimazole-treated (vs 0.048 untreated), n=2) came to 0.011 % uptake/minute. The “inhibition of 86Rb efflux stimulated with thapsigargin” value in the test on basolateral K+ channel (compared with VIP-stimulated efflux) was “inhibited to a similar degree”. Moreover, in the test on T84 cells, the “apparent potency of inhibition, basolateral vs apical application” value was “greater when applied basolaterally than apically”; the “inhibition by basolateral application alone compared with both sides” value is reported as “almost as effective as incubation on both sides”; the “inhibition … to VIP (Isc)” value is “inhibited”; the “inhibition … to carbachol (Isc)” value was “inhibited”. Also, in the test on T84 cells, the “inhibition of Cl- secretory response to carbachol after pretreatment” value was “inhibited strongly”; the “inhibition of Cl- secretory response to ionomycin after pretreatment” value is on record as “inhibited strongly”; the “inhibition of Cl- secretory response to thapsigargin after pretreatment” value is “inhibited strongly”; the “inhibition of cAMP and Ca++ elicited Cl- secretion” value is given as “most potent inhibitor tested”. Further, in the test on T84 cells, the “inhibition of secretory response to 8Br-cAMP after pretreatment” value was “inhibited”, the “inhibition of secretory response to VIP after pretreatment” value is listed as “inhibited”, the “inhibition of secretory response to forskolin after pretreatment” value was “inhibited” and the “inhibition of synergistic response to VIP plus carbachol” value is given as “found to parallel the inhibition of secretion promoted by Ca^++ agonists alone”. Further, in the test with T84 cells, the “reversibility of inhibition of Cl- secretion” value is on record as 96±2%. Moreover, in the test on T84 cells (Homo sapiens, T84, read-out: IC50, inhibition of secretory response to E. Coli heat-stabile toxin), the IC50 (commonly the midpoint of a concentration-inhibition curve) is 15 µM. Moreover, in the test on T84 cells (low doses (10^-7 or less)), the “potentiation of Cl- secretory responses to either agonist” value is reported as 5-10%.
On to `Clc1ccc(COC(Cn2ccnc2)c2ccc(Cl)cc2Cl)cc1` (stereo not shown) [econazole], for which the “inhibition of chloride secretion” value in the test on T84 cells was “effective at inhibiting chloride secretion”.
For the molecule `C=C[C@@]1(C)CC(=O)[C@]2(O)[C@@]3(C)[C@@H](O)CCC(C)(C)[C@@H]3[C@H](O)[C@H](OC(C)=O)[C@@]2(C)O1` [forskolin], in the test with basolateral K+ channels [1], the “increases in Isc and G in absence of K+” value is “not detectable”; the “activation of currents at positive transepithelial voltages” value is listed as “activate macroscopic outwardly rectified (mucosal to serosal) currents”; the “effect on K+ transport (Isc and G)” value was “brisk increase in K+ transport”; the “duration of agonist-induced changes in Isc” value is “sustained”. For the same molecule, in test [2] (forskolin 10 μM basolateral, no clotrimazole), the “effect on Cl- conductance over baseline” value is listed as “increased Cl- conductances significantly over baseline”. The “reversal potential (I/V relations)” value in the test on basolateral K+ channels [6] is given as -40 mV.
`CC(=O)N1CCN(c2ccc(OCC3COC(Cn4ccnc4)(c4ccc(Cl)cc4Cl)O3)cc2)CC1` (stereo not shown) [ketoconazole]: the “inhibition of chloride secretion” value in the test with T84 cells is reported as “effective at inhibiting chloride secretion”.
Same read-out and setting: to `Clc1ccc(COC(Cn2ccnc2)c2ccc(Cl)cc2Cl)c(Cl)c1` (stereo not shown) [miconazole] belongs “effective at inhibiting chloride secretion”.
Turning to `C/C=C(/C)C(=O)O[C@H]1C(C)=C2[C@H]([C@@H]1OC(=O)CCCCCCC)[C@@](C)(OC(C)=O)C[C@H](OC(=O)CCC)[C@@]1(O)[C@H]2OC(=O)[C@@]1(C)O` [thapsigargin], the “activation of currents at positive transepithelial voltages” value with basolateral K+ channels [1] is recorded as “activate macroscopic outwardly rectified (mucosal to serosal) currents”. Also, in the test on basolateral K+ channels [6], the “reversal potential (I/V relations)” value is recorded as -40 mV.
Consider charybdotoxin, for which the “effect on K+ transport induced by subsequent forskolin” value in the test on basolateral K+ channels [1] (charybdotoxin 100 nM) was “no detectable effect”. Moreover, the “inhibition of carbachol-induced Ca++ IK” value in the test with basolateral K+ channels [1] (charybdotoxin 100 nM pretreatment) was 50%. In the test on T84 cells, the “inhibition … to VIP (Isc)” value is reported as “minimal affects”. For the same molecule, in the test with T84 cells (setting [7]), the “inhibition … to carbachol (Isc)” value is reported as “strongly inhibited”.

The values are drawn from US6291449A, “Use of 11-phenyl-dibenzazepine compounds to treat diarrhea or scours” (Children's Medical Center Corporation, priority 1998, dated 2001).
